# What was measured:
# [1] = tested on: rats with severed and re-implanted sensory roots at the level of the left forelimb; test: Sensory roots of four DRG severed and re-implanted into the spinal cord, sticky tape tests; format: in vivo; conditions: rat, after 5 weeks, 1 mg/kg three times a week
# Description: In another example of nerve injury, the four sensory roots from each of four DRG at the level of the left forelimb were severed and re-implanted into the spinal cord.
# The results are illustrated in Borthwick et al., 2016. […] Rats were treated with 1 mg/kg of the test compound or vehicle two days after lesion, and then three times a week for the period of the experiment. Error bars show SEM. ***P<0.001, students t test, n=3-4 rats for each treatment group. At weeks 3, 4, and 5, there was significant difference between the rats treated with RARβ agonist as compared to rats treated with other retinoid agonists and vehicle.
# [2] = tested on: corticospinal tract (CST) of rats crushed at the C4 level; conditions: in vivo; Agudo et al., 2010; cited from earlier work
# cortical explants = test: Neurite outgrowth from cultured cortex of treated lesioned animals; format: cell-based, rat; conditions: cortex of lesioned rats treated in vivo; vehicle: did not grow
# Description: When pieces of cortex from these RARβ agonist treated animals were cultured, neurite outgrowth was observed, in contrast to cortex from control lesioned animals.
# (§1) Cerebellar neurons isolated from post-natal day 3 rat pups were cultured over monolayers of parental 3T3 cells in control media, or media supplemented with a recombinant MAG-Fc chimera (R&D Systems) used at a final concentration of 20 μg/mL MAG-Fc. The monolayers were established for 24 hours prior to addition of the neurons and the co-cultures were maintained for approximately 21 hours. Following careful fixation with 4% paraformaldehyde, the neurons were immuno-stained with a GAP-43 antibody (from Graham Wilkin, Imperial College), dilution of 1:500, and the mean length of the longest neurite per cell was measured for approximately 120-150 neurons as previously described (see, e.g., Williams et al., 2005). DRG and cortical explants were obtained from adult rats, they were cultured in cellogen as previously described (see, e.g., Corcoran and Maden, 1999). Three explants per treatment were used. Neurite outgrowth was assessed 3 days later by immunohistochemistry with NF200 (Sigma, dilution of 1:200). The average lengths of the neurites were measured using image pro plus software. Media consisted of DMEM-F12 (Invitrogen) containing N2 (Invitrogen) supplemented with glucose (33 mM) and glutamine (2 mM).
# [3] = tested on: corticospinal tract (CST) of rats crushed at the C4 level; test: Corticospinal tract (CST) crush at C4 in rats, agonist applied to the lateral ventricle; format: in vivo; conditions: rat
# Description: The results are illustrated in Borthwick et al., 2016.
# All animal experiments were carried out under UK home office regulations. Dorsal column lesions were performed on adult male rats as previously described (see, e.g., Bradbury et al., 2002). […] The pumps were placed subcutaneously and connected to a brain infusion catheter (Alzet™), which was inserted into the lateral ventricle (Bregma coordinates: rostrocaudal: −0.8 mm, mediolateral: −1.5 mm and dorsoventral: −4.5 mm). […] The dose was based previous in vivo studies on activation of RARα and RARβ signalling in the adult rat brain (see, e.g., Goncalves et al., 2009). Animals which underwent behavioural studies and subsequent tracing (n=6 per treatment) were kept for six weeks before being sacrificed with a lethal injection of pentobarbital and transcardially perfused with 4% PFA. Dissected tissue (cervical and lumbar spinal cord) was processed for immunofluorescence.
# Descendent corticospinal tract axons were anterogradely traced after the dorsal column crush was performed by injected BDA (10% in PBS, Mw10K from Molecular Probes) into the motor cortex as previously described (see, e.g., Yip et al., 2006). Six injections were done in the right cortex (0.5 μL of BDA/injection point). Animals (n=6 per treatment) were perfused and the spinal cord was transferred to PBS (plus 0.1% sodium azide) and embedded in gelatin (10%, 300 bloom; Sigma, Poole, UK). Gelatin blocks were hardened in 4% paraformaldehyde, and 40 μm free-floating serial transverse sections were cut on a vibratome (Leica, Nussloch, Germany) and collected in 24-well plates containing PBS (plus 0.1% sodium azide).
# BDA was detected using the tyramide amplification kit (Perkin-Elmer) coupled with extra-avidin-FITC (Amersham Pharmacia Biotech, UK, 1:500). All BDA-labelled fibres observed within a 1-mm square grid were counted at measured intervals from 5 mm above to 5 mm below the lesion site by an experimenter, blinded to treatment.
# CST neurons were labelled by retrograde tracing injecting 2 μL of 5% Fluorogold (FG, Molecular Probes) 2 mm deep into the cervical spinal cord (C3-C4) at a rate of 0.5 μL/minute (n=3 rats per group). In sham animals, FG was injected 0.5 mm bilateral to the medial line of spinal cord (1 μL per side), and in lesioned animals FG (2 μL) was injected into the injury. After 14 days, the cortices were fixed for 2 hours in 4% paraformaldehyde (PFA), embedded in OCT compound and stored frozen. Sagittal sections (12 μm) were cut and 4 sequential slides containing 2 sections from lateral 3.4-3.9 mm were taken for analysis (see, e.g., Paxinos and Watson, 2002).
# Immunohistochemistry was carried out using anti-rabbit phospho-Akt (Cell Signalling technology, dilution of 1:100). Secondary antibody used was anti-rabbit Cy3 conjugated (Jackson, used at 1:1000). Images were captured at 100× magnification using a Roperscientific digital camera.
# The behavioural tests were carried out as previously described (see, e.g., Bradbury et al., 2002). Rats (n=6 per treatment group) were first trained for two weeks before surgery to perform grid walk and beam walk; they were then tested by an observer blinded to the experimental treatment once a week for five weeks after lesion.
# cerebellar neurons = test: Neurite outgrowth assay, cerebellar neurons in the presence of myelin / MAG; format: cell-based, rat; conditions: cerebellar neurons grown in the presence of myelin
# Description: as §1
# [4] = i.c.v. 180 ng/kg/day for 14 days
smiles,measurement,setting,value
"COc1ccc(-c2ccc3cc(C(=O)O)ccc3c2)cc1C1(C)CCCCC1 [CD2019, 6-(4-methoxy-3-(1-methylcyclohexyl)phenyl)-2-naphthalenecarboxylic acid]",Behavioural test (sticky tape),[1],performed as well as non-lesioned animals
same,Phospho AKT in the injured CST neurons,[2],induced
same,Axon growth from cultured adult cortex of treated animals,cortical explants,did grow
same,Behavioural tests (grid and beam task),[3]; after 5 weeks,performed as well as non-lesioned animals
same,BDA-labelled CST axons crossing the lesion site,"[3]; after 5 weeks, vs vehicle (no axons across)",many axons were observed crossing the injury site
same,"Time to functional recovery, beam task",[3]; [4],2 weeks post lesion
same,"Time to functional recovery, grid task",[3]; [4],4 weeks post lesion
same,RARβ2 expression in the CST neuronal cell bodies,[3]; lateral ventricle for 2 weeks,upregulation of RARβ2
same,Neurite outgrowth,cerebellar neurons,causes the outgrowth of neurites

# — patent US11584741B2, “Crystalline forms of 4-(5-(4,7-dimethylbenzofuran-2-yl)-1,2,4-oxadiazol-3-yl)benzoic acid and processes for their preparation” (King's College London, priority 2016, dated 2023)
